Results on one substance are retold here after patent US20180051284A1, “INHIBITORS OF MIR-17-92 CLUSTER FOR ANTI-TUMOR ACTIVITY IN MULTIPLE MYELOMA AND OTHER MALIGNANCIES” (priority 2014, published 2018).

l = locked nucleic acid (LNA); d = 2'-deoxy (DNA)

Holding throughout (format): cell-based, Human
For data set [1], the system named is miR-17-92 primary transcript (pri-miRs) and mature miR-17-92 cluster members. The data set can be described thus: q-RT-PCR of miR-17-92 member family and two pri-miRs after transfection of MM cells. The conditions noted are these: 48 hours after transfection with 25 nM. As to the method: (§1) 3×10^5 cells were transfected using Neon Transfection System (Invitrogen, Calif.,U.S.), (2 pulses at 1150, 30ms). The transfection efficiency evaluated by flow-cytometric analysis relative to a FAM dye—labeled anti-miR—negative control reached 85% to 90%.
Reverse transcription (RT) of both primary and mature miRNAs was performed using TaqMan® MicroRNA Assays, following a procedure for multiplexing the RT step (Life Technologies, Publication Part Number 4465407). Briefly, 500 ng of total RNA, prepared with the TRIzol® Reagent (Invitrogen), underwent reverse transcription by the Taq-Man® MicroRNA RT Kit. In this reaction, the RT primer pool was composed by the individual RT primers for each microRNA belonging to the miR-17-92 cluster and two RT primers to allow the reverse transcription of the miR-17-92 primary miRNA. Real-time PCR was performed using TaqMan® MicroRNA Assays together with the TaqMan® Universal PCR Master Mix on an ViiA7 System (Life Technologies). Both primary and mature microRNAs expressions were relatively quantified using the 2-ΔΔCt method (Applied Biosystems User Bulletin No. 2), and expressed as the relative quantity of target miRNA normalized to the RNU44 (assay ID 001094) housekeeping gene. Comparative real-time polymerase chain reaction (RT-PCR) was performed in triplicate, including no-template controls. Relative expression was calculated using the comparative cross threshold (Ct) method.
By the use of a custom q-RT-PCR plate specifically designed by us to detect all six mature miR-17-92 members and the primary transcript by two different assays (pri-mir-17/18a/19a and pri-mir-19b1/20a/92a1), we quantified in a panel of 11 MM cell lines the levels of the different miRNAs and pri-miRs.

Data set [2] deals with RPMI-8226, KMS-12-BM and NCI-H929 MM cells. Description: CCK-8 cell growth assay after transfection. The conditions noted are these: transfection with 25 nM. As to the method:
as §1
Cells were seeded in 100 μL (suspension cell lines) or 50 μL (adherent cell lines) of culture medium at a density ranging from 0,5 to 2,5×10^3 cells per well. Survival was evaluated by both Cell Counting Kit-8 colorimetric assay (CCK-8, Dojindo Molecular Technologies, Japan) and CellTiter-Glo Luminescent Cell Viability Assay (Promega Madison, Wis., USA). Assays were performed according to the manufacturer's instructions. The optical density (OD) was evaluated at wave length of 450 nm. Both OD and luminescence were recorded with the GloMax-multi detection system (Promega, Madison, Wis., USA).
(Tetrazolium dyes change colour on reduction, which living cells bring about.)

Data set [3] has the same test system. The data set can be described thus: AnnexinV/7-AAD staining apoptosis after transfection. The conditions noted are these: transfection with 25 nM; 48 hours. How it is done:
as §1
(§2) 7-aminoactinomycin was used to evaluate cell viability. The staining was performed according to manufacturer's instructions.

In data set [4] the test system is NCI-H929 cells. The data set can be described thus: Flow cytometry of 7-AAD stained cells after transfection. The conditions noted are these: transfection 25 nM, as compared to RNase-free water. As to the method:
as §1, §2
In general terms: Flow cytometry measures light scatter and fluorescence of single cells or particles in a stream.

Data set [5] concerns PTEN, AKT, ERK, E2F-1, p14/ARF-p53 and intrinsic apoptotic pathway proteins in NCI-H929 cells. Description: Western blot analysis of molecular perturbations after gymnotic exposure. How it is done:
SDS-PAGE and Western Blotting (WB) were performed according to standard protocols. Briefly, cells were lysed by lysis buffer containing 15mM Tris/HCl pH 7.5, 120mM NaCl, 25mM KCI, 1mM EDTA, 0.5% Triton 100, Halt Protease Inhibitor Single-Use cocktail (100X, Thermo Scientific). Whole cells lysates (50 μg per lane) were separated using 4-12% Novex Bis-Tris SDS-acrylamide gels (Invitrogen), electro-transferred on Nitrocellulose membranes (Bio-Rad), and immunoblotted with the antibodies. Membranes were washed 3 times in PBS-Tween and then incubated with a secondary antibody conjugated with horseradish peroxidase in 0.5% milk for 2 hours at room temperature. Chemiluminescence was detected using Western Blotting Luminol Reagent (sc-2048, Santa Cruz, Dallas, Tex., USA). Signal intensity was quantified with the Quantity One Analyzing System (Bio-Rad).
MiRNAs are a class of non coding RNAs that regulate gene expression at post-transcriptional levels. Each miRNA may regulate the expression of several (hundreds) genes. Since LNA/DNA gapmers inhibit the biogenisis of the six members of the miR-17-92 cluster, a wide perturbation in the expression of target genes is predictable. Therefore, we gymnotically exposed NCI-H929 cells for 6 days to gapmer_06 or scrambled controls and, by western blotting, we analyzed molecular perturbations at protein levels.
On the technique in general: A western blot detects proteins with antibodies after separation by electrophoresis.

[6] abbreviates: NCI-H929, 6 days gymnotic exposure, 2,5 μM.

For the substance “gapmer_06: LNA/DNA gapmer, SEQ ID 4 (14 mer): +T*+A*+C*T*T*G*C*T*T*G*G*+C*+T*+T; + LNA, * phosphorothioate (antisense TACTTGCTTGGCTT; sugars from the 5' end l3 d8 l3, all phosphorothioate, methylation of C not given here)”, the “downregulation of primary and mature miRNA sequences (q-RT-PCR)” value in data set [1] (NCI-H929 and RPMI-8226 cells, relative to RNase-free water) is “more effective gapmer to downregulate both primary and mature miRNA sequences”. In data set [1] (NCI-H929 cells, vs RNase-free water), the “downregulation of pri-miRs and miR-17-92 cluster members (q-RT-PCR)” value is “induce downregulation of the two primary transcript and mature single miRNA members”. The “biological effect on cell growth (CCK-8) compared with single miRNA inhibitors for miR-17/18a/19a/19b/20a/92a” value in data set [2] is on record as “strongest biological effects”. Besides, the “cell growth inhibition (CCK-8 assay)” value in data set [2] (up to 96 hours, compared among the eight gapmers) is reported as “strongest cell growth inhibition”. In addition, the “apoptosis (AnnexinV/7-AAD staining)” value in data set [3] is given as “increased apoptosis”. Moreover, the “reduction of live cells (7-AAD)” value in data set [4] is 20%. Moreover, in data set [5] (setting [6]), the “E2F-1 protein level (Western Blot)” value is given as “strongly up-regulated”; the “anti-apoptotic proteins Bcl-2, Mcl-1 (Western Blot)” value was “down-regulation of anti-apoptotic proteins”; the “caspase-3 cleavage (Western Blot)” value was “caspase-3 cleavege”; the “p-AKT and p-ERK (phosphorylated/active forms, Western Blot)” value is “reduction of the phopshorylated / active forms”. Further, the “pro-apoptotic proteins Puma, Bak, Bax, Bid and Bim (Western Blot)” value in data set [5] (setting [6]) is reported as “up-regulation of pro-apototic proteins”. In addition, the “PTEN protein level (Western Blot)” value in data set [5] (NCI-H929, 6 days gymnotic exposure, 2,5 μM, vs scrambled controls) is on record as “strong up-regulation”. Also, the “p14/ARF-p53 fail-safe axis (Western Blot)” value in data set [5] (p53-wild-type NCI-H929, 6 days gymnotic exposure, 2,5 μM) is “triggers the p14/ARF-p53 fail-safe axis”.
